Columns and labels:
Type in all cases: cell-based, human
[1] = system: reticular or papillary fibroblasts; assay: Compound screening on reticular or papillary fibroblasts, qPCR of 3 papillary and 3 reticular markers; conditions: high=0.01% v/v, low=0.0001% v/v, 24 hrs; CCRL1, NTN1, PDPN, MGP, PPP1R14A, TGM2; FIG. 2
Description: The fibroblasts were isolated and cultured as described above (example 1).
12000 reticular or papillary fibroblasts were seeded in 12 well culture plates (Costar). The fibroblasts were cultured for 5 days until 90% of the surface area was covered. Two different concentrations (low/high) of compounds were applied for 24 hrs. Pictures were taken before and after application. No differences in morphology and were observed (data not shown). RNA was isolated as described in example 1.
qPCR analysis was performed using 3 papillary (CCRL1, NTN1 and PDPN) and 3 reticular (MGP, PPP1R14A and TGM2) markers, according to example 1. The expression was normalized using two reference genes (SND1 and EI24). The effect of verbascoside was determined by comparing the expression of the genes to the expression of vehicle treated fibroblasts.

papillary fibroblasts [2] = assay: TGF-β1 treatment of monolayer papillary fibroblasts, marker expression by qPCR; conditions: TGF-β1 2 or 10 ng/mL, 2 or 4 days
Description: cDNA was generated of 1 μg RNA using the iScript cDNA synthesis kit (BioRad, Veenendaal, The Netherlands) according to manufacturer's instructions. PCR reactions were based on the SYBR Green method (BioRad) and consisted of 2× Sybr Green Mastermix, 1 ng cDNA template and 500 nM of forward and reverse primers. The PCRs were run on the MyIQ system (BioRad). The PCR cycles were: 3,5 minutes at 95 C to activate the polymerase, 35 cycles of 20 sec 95 C and 40 sec 60 C, followed by the generation of a melt curve. Primers were checked before on dilution series of normal fibroblasts cDNA. References genes were analyzed with the GeNorm method (20). Expression analysis was performed with the BioRad Software (iQ5) and was based on the delta delta Ct method with the reference genes that were most stably expressed in the GeNorm analysis.
(§1) Monolayer cultures of papillary fibroblasts were treated with TGF-β1, 2 or 10 ng/mL, for 2 or 4 days. Then the expression of the reticular and papillary markers was measured by qPCR and by IHC staining on the cultures.

papillary fibroblasts [3] = assay: TGF-β1 treatment of monolayer papillary fibroblasts, IHC staining and morphology; conditions: TGF-β1 2 or 10 ng/mL, 2 or 4 days
Description: For IHC on monolayer cell cultures, fibroblasts were grown on glass slides until nearly confluent, washed in PBS and fixed with 4% formaldehyde. Staining was visualized by a secondary antibody with a fluorescent dye (Cy3). DAPI was used as counterstain.
as §1

C[C@@H]1O[C@@H](O[C@@H]2[C@@H](O)[C@H](OCCc3ccc(O)c(O)c3)O[C@H](CO)[C@H]2OC(=O)/C=C/c2ccc(O)c(O)c2)[C@H](O)[C@H](O)[C@H]1O [Verbascoside]
effect on reticular/papillary marker gene signature (qPCR, vs vehicle treated fibroblasts) [1]: able to alter the reticular signature into a papillary signature

TGF-β1: TGF-β1, can induce differentiation of fibroblasts to myofibroblasts
differentiation of papillary fibroblasts as measured by qPCR (papillary fibroblasts [2]; monolayer cell cultures): caused differentiation to reticular fibroblasts
expression of papillary markers (qPCR) (papillary fibroblasts [2]; data not shown): decreased
expression of reticular markers (qPCR) (papillary fibroblasts [2]; data not shown): increased
myofibroblast differentiation: a-SMA expression (papillary fibroblasts [3]): increased a-SMA expression
myofibroblast differentiation: morphological changes (papillary fibroblasts [3]): increase in cell size
papillary marker PDPN by IHC staining (papillary fibroblasts [3]): loss of papillary marker PDPN
reticular marker TGM2 by IHC staining (papillary fibroblasts [3]): gain of reticular marker TGM2
